Experimental data published in US20200239530A1, “COMPOUNDS AND METHODS OF MODULATING PROTEIN DEGRADATION” (Vividion Therapeutics, Inc., priority 2017, published 2020).

Tests used:
Test in all cases: Cysteine liganding, probe competition
Type in all cases: binding
[1] = target: T1, DDX20 Probable ATP-dependent RNA helicase DDX20 (Homo sapiens, UniProt Q9UHI6)
T1 construct: 200 μL of lysate containing 5 mg/ml proteome was treated with 2 μL of 100× compound stock; endogenous in cells
T1 sequence (Q9UHI6 1-824): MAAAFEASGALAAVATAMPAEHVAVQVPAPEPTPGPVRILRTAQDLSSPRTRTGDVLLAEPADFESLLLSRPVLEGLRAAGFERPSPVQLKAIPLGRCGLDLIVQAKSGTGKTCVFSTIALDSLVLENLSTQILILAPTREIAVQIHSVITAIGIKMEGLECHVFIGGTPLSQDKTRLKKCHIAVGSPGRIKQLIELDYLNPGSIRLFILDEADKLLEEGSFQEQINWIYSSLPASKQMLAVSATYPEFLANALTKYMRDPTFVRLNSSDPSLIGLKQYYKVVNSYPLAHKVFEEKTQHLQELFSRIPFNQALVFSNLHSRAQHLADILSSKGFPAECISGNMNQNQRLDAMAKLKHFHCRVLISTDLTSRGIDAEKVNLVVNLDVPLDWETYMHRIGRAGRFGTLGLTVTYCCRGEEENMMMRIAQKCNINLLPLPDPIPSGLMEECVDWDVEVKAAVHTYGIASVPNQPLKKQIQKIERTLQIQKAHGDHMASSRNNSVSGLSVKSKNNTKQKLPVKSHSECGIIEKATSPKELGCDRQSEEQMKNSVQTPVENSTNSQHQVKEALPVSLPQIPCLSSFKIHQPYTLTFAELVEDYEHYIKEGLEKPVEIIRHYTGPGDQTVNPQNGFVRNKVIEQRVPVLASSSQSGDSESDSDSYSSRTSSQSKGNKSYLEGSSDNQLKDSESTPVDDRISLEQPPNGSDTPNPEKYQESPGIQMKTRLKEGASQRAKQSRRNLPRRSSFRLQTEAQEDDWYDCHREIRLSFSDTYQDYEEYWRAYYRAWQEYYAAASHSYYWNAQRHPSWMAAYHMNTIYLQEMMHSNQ
Summary of the method: (§1)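 Probe competition in native proteome: 5 mg/ml lysate, compound 1 hr 25° C, then desthiobiotin iodoacetamide (10 mM stock) 1 hr 25° C; acetone ppt, urea/DTT reduction, iodoacetamide alkylation, trypsin, streptavidin pull-down.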

[2] = target: T2, DECR2 Peroxisomal 2,4-dienoyl-CoA reductase (Homo sapiens, UniProt Q9NUI1); conditions: for Liganded: DECR2 Res# 120, uniprot Q9NUI1
T2 construct: 200 μL of lysate containing 5 mg/ml proteome was treated with 2 μL of 100× compound stock; endogenous in cells
T2 sequence (Q9NUI1 1-292): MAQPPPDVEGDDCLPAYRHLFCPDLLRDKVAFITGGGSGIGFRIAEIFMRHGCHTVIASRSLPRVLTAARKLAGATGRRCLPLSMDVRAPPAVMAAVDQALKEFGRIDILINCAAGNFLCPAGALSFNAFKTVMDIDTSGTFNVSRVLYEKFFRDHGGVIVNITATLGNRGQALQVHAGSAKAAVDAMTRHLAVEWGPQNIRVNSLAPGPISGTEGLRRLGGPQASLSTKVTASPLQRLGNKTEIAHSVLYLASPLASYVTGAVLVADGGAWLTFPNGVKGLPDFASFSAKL
Summary of the method: as §1

FASN Fatty acid synthase = target: T3, FASN Fatty acid synthase (Homo sapiens, UniProt P49327)
T3 construct: 200 μL of lysate containing 5 mg/ml proteome was treated with 2 μL of 100× compound stock; endogenous in cells
Summary of the method: as §1

[3] = target: T4, HUWE1 E3 ubiquitin-protein ligase HUWE1 (Homo sapiens, UniProt Q7Z6Z7)
T4 construct: Cells were resuspended in cold PBS on ice and sonicated with a probe sonicator to achieve lysis; endogenous in cells
Summary of the method: as §1

T4 sequence (Q7Z6Z7 whole entry): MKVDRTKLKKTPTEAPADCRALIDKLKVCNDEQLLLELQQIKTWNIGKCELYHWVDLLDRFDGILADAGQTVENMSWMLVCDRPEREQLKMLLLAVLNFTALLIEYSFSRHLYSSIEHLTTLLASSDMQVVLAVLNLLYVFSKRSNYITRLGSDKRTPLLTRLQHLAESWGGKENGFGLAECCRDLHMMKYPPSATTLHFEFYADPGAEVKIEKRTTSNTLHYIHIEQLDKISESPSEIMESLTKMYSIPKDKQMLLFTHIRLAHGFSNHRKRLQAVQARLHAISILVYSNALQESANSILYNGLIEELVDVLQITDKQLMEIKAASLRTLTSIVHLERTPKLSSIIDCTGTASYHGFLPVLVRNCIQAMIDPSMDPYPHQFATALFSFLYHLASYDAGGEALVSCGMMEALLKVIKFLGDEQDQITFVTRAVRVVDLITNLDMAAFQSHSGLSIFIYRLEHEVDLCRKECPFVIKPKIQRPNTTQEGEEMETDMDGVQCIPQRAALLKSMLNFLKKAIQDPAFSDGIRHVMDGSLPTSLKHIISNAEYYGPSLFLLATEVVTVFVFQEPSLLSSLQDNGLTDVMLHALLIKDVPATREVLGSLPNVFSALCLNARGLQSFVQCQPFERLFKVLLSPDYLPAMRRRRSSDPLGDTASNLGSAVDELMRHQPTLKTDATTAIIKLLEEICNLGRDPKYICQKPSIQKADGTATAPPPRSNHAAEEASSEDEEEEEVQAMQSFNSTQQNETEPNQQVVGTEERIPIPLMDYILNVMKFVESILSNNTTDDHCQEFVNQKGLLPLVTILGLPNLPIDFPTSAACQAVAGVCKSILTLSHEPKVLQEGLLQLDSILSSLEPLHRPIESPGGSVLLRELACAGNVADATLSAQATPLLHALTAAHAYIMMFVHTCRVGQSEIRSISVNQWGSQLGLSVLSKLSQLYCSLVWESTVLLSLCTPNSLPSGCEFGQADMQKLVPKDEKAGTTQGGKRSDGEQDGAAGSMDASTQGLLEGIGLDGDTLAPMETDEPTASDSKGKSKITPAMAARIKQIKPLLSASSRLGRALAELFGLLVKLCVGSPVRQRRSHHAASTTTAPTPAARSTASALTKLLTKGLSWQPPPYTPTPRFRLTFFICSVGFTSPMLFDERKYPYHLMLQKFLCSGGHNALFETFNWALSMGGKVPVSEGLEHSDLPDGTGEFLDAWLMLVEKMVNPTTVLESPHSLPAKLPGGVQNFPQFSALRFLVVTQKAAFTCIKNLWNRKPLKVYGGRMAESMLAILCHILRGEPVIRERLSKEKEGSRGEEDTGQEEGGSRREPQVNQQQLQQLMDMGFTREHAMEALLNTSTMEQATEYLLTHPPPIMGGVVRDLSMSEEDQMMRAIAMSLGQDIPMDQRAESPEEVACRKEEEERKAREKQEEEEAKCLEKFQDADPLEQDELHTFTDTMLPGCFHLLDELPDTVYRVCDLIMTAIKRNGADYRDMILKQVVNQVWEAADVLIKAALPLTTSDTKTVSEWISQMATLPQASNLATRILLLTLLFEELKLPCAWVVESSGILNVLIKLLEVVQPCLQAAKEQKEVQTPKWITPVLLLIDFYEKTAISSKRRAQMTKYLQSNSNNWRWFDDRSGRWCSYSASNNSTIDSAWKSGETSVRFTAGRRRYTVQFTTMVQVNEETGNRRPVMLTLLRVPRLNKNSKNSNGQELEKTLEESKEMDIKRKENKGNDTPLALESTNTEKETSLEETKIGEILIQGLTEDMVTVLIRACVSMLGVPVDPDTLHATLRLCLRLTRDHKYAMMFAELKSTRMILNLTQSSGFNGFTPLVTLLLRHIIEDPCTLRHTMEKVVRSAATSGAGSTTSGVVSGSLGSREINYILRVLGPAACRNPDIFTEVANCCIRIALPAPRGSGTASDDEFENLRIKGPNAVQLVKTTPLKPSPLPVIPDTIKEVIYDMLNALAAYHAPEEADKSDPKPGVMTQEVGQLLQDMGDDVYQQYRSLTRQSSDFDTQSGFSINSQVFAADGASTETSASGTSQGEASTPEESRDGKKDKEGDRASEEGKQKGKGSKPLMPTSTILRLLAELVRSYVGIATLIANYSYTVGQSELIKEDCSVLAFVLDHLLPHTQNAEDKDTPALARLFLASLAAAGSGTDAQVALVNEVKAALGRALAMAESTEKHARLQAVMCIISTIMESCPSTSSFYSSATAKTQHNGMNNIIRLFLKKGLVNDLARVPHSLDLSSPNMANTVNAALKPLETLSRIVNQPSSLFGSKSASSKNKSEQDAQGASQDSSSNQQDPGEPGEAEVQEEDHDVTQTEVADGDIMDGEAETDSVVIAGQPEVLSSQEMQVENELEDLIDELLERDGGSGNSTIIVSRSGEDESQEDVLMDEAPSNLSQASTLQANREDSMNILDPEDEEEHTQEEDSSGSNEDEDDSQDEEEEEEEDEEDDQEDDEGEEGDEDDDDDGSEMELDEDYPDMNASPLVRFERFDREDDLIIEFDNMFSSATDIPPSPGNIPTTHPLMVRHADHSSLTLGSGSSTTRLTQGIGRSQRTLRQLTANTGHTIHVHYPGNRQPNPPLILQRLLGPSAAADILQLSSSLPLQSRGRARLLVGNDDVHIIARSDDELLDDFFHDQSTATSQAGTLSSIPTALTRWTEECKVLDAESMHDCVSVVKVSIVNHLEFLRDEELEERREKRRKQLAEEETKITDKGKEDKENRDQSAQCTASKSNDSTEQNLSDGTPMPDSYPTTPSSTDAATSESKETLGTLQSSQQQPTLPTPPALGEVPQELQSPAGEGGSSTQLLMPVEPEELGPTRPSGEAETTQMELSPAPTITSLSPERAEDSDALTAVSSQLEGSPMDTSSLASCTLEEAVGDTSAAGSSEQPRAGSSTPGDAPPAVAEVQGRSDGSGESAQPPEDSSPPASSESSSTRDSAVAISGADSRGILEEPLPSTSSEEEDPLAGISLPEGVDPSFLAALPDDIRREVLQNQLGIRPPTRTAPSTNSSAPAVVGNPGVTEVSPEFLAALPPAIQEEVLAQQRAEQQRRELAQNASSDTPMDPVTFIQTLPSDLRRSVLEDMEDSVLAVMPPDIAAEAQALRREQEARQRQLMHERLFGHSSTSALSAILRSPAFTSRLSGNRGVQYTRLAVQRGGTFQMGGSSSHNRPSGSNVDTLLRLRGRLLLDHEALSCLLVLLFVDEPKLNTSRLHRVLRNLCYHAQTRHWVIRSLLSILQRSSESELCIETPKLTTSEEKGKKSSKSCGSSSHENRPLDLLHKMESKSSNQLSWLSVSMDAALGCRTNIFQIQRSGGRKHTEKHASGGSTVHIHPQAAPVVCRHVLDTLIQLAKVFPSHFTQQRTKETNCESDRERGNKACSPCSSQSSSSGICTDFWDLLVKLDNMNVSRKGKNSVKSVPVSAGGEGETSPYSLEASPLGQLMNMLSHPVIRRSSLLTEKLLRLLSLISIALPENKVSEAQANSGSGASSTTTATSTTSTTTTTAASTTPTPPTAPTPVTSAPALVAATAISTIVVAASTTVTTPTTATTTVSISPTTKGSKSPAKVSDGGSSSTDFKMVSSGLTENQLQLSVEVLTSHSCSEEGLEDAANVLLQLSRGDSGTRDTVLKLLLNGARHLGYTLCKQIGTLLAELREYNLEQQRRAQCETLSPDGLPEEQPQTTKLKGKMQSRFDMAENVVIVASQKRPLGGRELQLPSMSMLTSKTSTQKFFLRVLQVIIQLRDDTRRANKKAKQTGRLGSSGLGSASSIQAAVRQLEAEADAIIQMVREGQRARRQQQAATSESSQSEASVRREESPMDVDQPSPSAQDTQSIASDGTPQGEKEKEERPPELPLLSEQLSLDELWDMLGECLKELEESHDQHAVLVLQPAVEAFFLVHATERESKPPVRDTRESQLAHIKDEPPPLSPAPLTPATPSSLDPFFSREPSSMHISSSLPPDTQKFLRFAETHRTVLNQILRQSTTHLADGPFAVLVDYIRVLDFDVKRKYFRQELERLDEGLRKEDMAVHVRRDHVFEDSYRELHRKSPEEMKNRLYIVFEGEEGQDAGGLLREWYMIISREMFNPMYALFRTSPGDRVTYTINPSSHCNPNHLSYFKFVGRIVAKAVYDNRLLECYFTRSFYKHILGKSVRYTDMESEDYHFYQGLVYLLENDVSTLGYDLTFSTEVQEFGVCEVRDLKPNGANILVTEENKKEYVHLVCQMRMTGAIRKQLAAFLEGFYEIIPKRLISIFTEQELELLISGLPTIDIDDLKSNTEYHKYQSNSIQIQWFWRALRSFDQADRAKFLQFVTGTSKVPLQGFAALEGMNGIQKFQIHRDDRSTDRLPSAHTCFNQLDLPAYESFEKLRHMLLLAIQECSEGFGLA

Compound	Liganded ([1]; DDX20 Res# 577, uniprot Q9UHI6)	Liganded [2]	Liganded (FASN Fatty acid synthase; FASN Res# 161, uniprot P49327)	Liganded ([3]; HUWE1 Res# 2181, uniprot Q7Z6Z7)	100 Max ([1]; uniprot Q9UHI6)	100 ave ([1]; uniprot Q9UHI6)	500 Max ([1]; uniprot Q9UHI6)	500 ave ([1]; uniprot Q9UHI6)	100 Max ([2]; uniprot Q9NUI1)	100 ave ([2]; uniprot Q9NUI1)	500 Max ([2]; uniprot Q9NUI1)	500 ave ([2]; uniprot Q9NUI1)	100 Max (FASN Fatty acid synthase; uniprot P49327)	100 ave (FASN Fatty acid synthase; uniprot P49327)	100 ave ([3]; uniprot Q7Z6Z7)	100 Max ([3]; uniprot Q7Z6Z7, unit assumed) [%]
COc1ccc2c(c1)CCCN2C(=O)CCl [KB02]	YES	YES	YES	YES												
O=C(CCl)Nc1cc(C(F)(F)F)cc(C(F)(F)F)c1 [KBO3]		YES			0.85	−6.7225	37.31	31.49	66.9	66.9	85	85	−26.25	−26.25	9.7	9.7
